PMC4728560 (Scientific Reports, 2016)

Test system: cBid+Bax
Experiment: Control liposome permeabilization without Bcl-xL, cBid+Bax
Assay type: biochemical
Details: 320 nM pH9 treated TCTP, 100 nM Bax, 20 nM cBid
Procedure: (A–E) in vitro reconstitution assay on liposome permeabilization. […] The treated Bcl-xL was then added to reactions containing ANTS-DPX liposomes, 100 nM Bax and 20 nM of either cBid (A,B) or cBidmt1(C,D) at pH 7. Liposome permeabilization was quantified by fluorescence after 5h incubation at 37 °C where 100% release was defined as the fluorescence change due to lipid solubilization with 1% Triton X-100. […] Error bars, std. dev. n = 3. To compare between the TCTP treated groups and the Control group statistically, two-way ANOVA test was performed for (A–D) and one-way ANOVA test was performed for (E). […] Colored asterisks above each data point indicate the statistical significance (*p < 0.05; **p < 0.01, no asterisks if p ≥ 0.05). A complete statistical analysis is provided in Supplementary Table 2–4. (F) Permeabilization assays of mitochondrial membrane by tBid and Bax assessing cytochrome c release. […] Cyto c extra-mito: in the supernatant, analysed by Western blot. […]
Figure 10 A,B) or cBid mt1 (Supplementary Figure 10 C,D) at pH 7 to quantify the activity of Bcl-xL inhibition of liposome permeablization. […]
the Control group (No TCTP) were analyzed through Dunnett's multiple comparisons test at each sample condition (Bcl-XL concentration) for statistical significance. […]
Statistical significance was analyzed through Dunnett's multiple comparisons test. […]

Substance: TCTP: Translationally Controlled Tumor Protein (TCTP/tpt1), recombinant full-length
- effect on cBid-Bax induced permeabilization not containing Bcl-xL: no effect
